Data published in publication PMC7997369, “Assessment of the Multifunctional Behavior of Lupin Peptide P7 and Its Metabolite Using an Integrated Strategy” (Journal of Agricultural and Food Chemistry, 2020).

Legend:
[1] = tested on: spontaneously hypertensive rats (SHRs); conditions: cited from earlier work
Experimental: (§1) Moreover, when orally administered to spontaneously hypertensive rats (SHRs) at a dose of 30 mg/kg of body weight, LTFPG produces a fast and efficient decrease in systolic blood pressure with a maximum of −37 mmHg after 2 h. […] In particular, these phenomena have been invocated to explain the discrepancy observed between in vitro assays and in vivo results. For example, there are many reports in the literature on the ACE inhibitory activity of different food-derived peptides.[32] In all of these studies, the biochemical characterization is carried out using tests on the purified recombinant ACE enzymes from lung ...

ACE = conditions: cited from earlier work; for in vitro ACE inhibitory activity at 0.5 mg/mL: hempseed hydrolysate peptides
Experimental: as §1

[2] = tested on: differentiated Caco-2 cell monolayers; assay: Transepithelial transport and metabolism across differentiated Caco-2 cell monolayers; format: in vitro ADME, human; conditions: AP solutions of differentiated Caco-2 collected after 120 min; untargeted HPLC–Chip–MS/MS; × = detected
Experimental: For differentiation, Caco-2 cells were seeded on polycarbonate filters with a 12 mm diameter and 0.4 μm pore diameter (Transwell, Corning, Inc., Lowell, MA, U.S.A.) at a 3.5 × 10^5 cells/cm^2 density in complete medium supplemented with 10% FBS in both AP and BL compartments for 2 days to allow for the formation of a confluent cell monolayer. Starting from day 3 after seeding, cells were transferred to FBS-free medium in both compartments, supplemented with ITS [final concentration of 10 mg/L insulin (I), 5.5 mg/L transferrin (T), and 6.7 μg/L sodium selenite (S), GIBCO–Invitrogen, San Giuliano Milanese, Italy] only in the BL compartment, and allowed to differentiate for 18–21 days with regular medium changes 3 times weekly.[12]
The transepithelial electrical resistance (TEER) of differentiated Caco-2 cells was measured at 37 °C using the voltmeter apparatus Millicell (Millipore Co., Billerica, MA, U.S.A.), immediately before and at the end of the transport experiments. In addition, at the end of transport experiments, cells were incubated from the AP side with 1 mM phenol red in phosphate-buffered saline (PBS) containing Ca^2+ (0.9 mM) and Mg^2+ (0.5 mM) for 1 h at 37 °C, to monitor the paracellular permeability of the cell monolayer. The BL solutions were then collected, and NaOH (70 μL, 0.1 N) was added before reading the absorbance at 560 nm by a microplate reader Synergy H1 from Biotek (Winooski, VT, U.S.A.). Phenol red passage was quantified using a standard phenol red curve. Only filters showing TEER values and phenol red passages similar to untreated control cells were considered for peptide transport analysis.
Prior to experiments, the cell monolayer integrity and differentiation were checked by TEER measurement as described in detail above. Cells were then washed twice, and peptide transportation by intestinal cells was assayed. Transport experiments were performed in transport buffer solution (137 mM NaCl, 5.36 mM KCl, 1.26 mM CaCl2, 1.1 mM MgCl2, and 5.5 mM glucose) following conditions previously described.[13] To reproduce the pH conditions existing in vivo in the small intestinal mucosa, AP solutions were maintained at pH 6.0 (buffered with 10 mM morpholinoethanesulfonic acid) and BL solutions were maintained at pH 7.4 (buffered with 10 mM N-2-hydroxyethylpiperazine-N-4-[…]). Prior to transport experiments, cells were washed twice with 500 μL of PBS containing Ca^2+ and Mg^2+. Peptide transportation by mature Caco-2 cells was assayed by loading the AP compartment with P7 and/or LTFPG (500 μM) in the AP transport solution (500 μL) and the BL compartment with the BL transport solution (700 μL). The plates were incubated at 37 °C, and the BL solutions were collected at different time points (i.e., 15, 30, 60, 90, and 120 min) and replaced with fresh solutions prewarmed at 37 °C. All BL solutions together with the AP solutions collected at the end of the transport experiment were stored at −80 °C prior to analysis. Three independent transport experiments were performed, each in duplicate.
Quantitative analysis of P7 in the AP and BL samples were carried out by ion trap mass spectrometry (MS) in multiple reaction monitoring (MRM) mode, monitoring two of the most intense diagnostic transitions, after optimization of the acquisition parameters, such as retention time, MS profile, and tandem mass spectrometry (MS/MS) fragmentation spectrum.[14],[15] All further details regarding liquid chromatography–tandem mass spectrometry (LC–MS/MS) operating conditions and method validations are described in the Supporting Information.
The metabolic degradation products deriving from the hydrolytic activity of brush border membrane peptidases were investigated by an untargeted approach (for further details, see the Supporting Information). […]

FKGRYYP [peptide from meat-derived hydrolysates obtained using thermolysin]
effect in vivo on SHRs [1]: totally ineffective | IC50 (ACE; peptides from meat-derived thermolysin hydrolysates, read-out: IC50, in vitro ACE activity): 550 nM

IPAGV
reduction of the BP of SHR [1]: −40.0 mmHg | in vitro ACE inhibitory activity at 0.5 mg/mL (ACE): 60.0%

SVYT
in vitro ACE inhibitory activity at 0.5 mg/mL (ACE): 79.0%

TFPGSAED [AP metabolite of P7 produced by Caco-2 cells, attributed to leucine aminopeptidase]
detected at the AP side, P7 tested within a mixture [2]: ×
